Target: Programmed cell death 1 ligand/protein 1 (Homo sapiens, UniProt Q9NZQ7)
Experiment: PD-L1 Binding Assay
Experimental: Experimental Materials:PD1:PD-L1 TR-FRET assay kit, purchased from BPS Biosciences. Nivo multimode microplate reader (PerkinElmer)Experimental Method:PD1-Eu, dye-labeled acceptor, PD-L1-biotin, and compound to be tested were all diluted using the buffer in the kit.The compound to be tested was diluted 5-fold to the 8th concentration, i.e., from 4 μM to 0.05 nM, and the DMSO concentration was 4%. The experiment was set up in duplicate wells. 5 μL of each concentration gradient of the compound to be tested was added to a microtiter plate, wherein 5 μL of a buffer containing 4% DMSO and 5 μL of PD-L1-biotin (60 nM) was added to the Max signal well, and only 5 μL of buffer was added to the Min signal well. The plate was incubated at 25° C. for 20 minutes. After the incubation, 5 μL of diluted PD1-Eu (10 nM) and 5 μL of diluted dye-labeled acceptor were added to each well. The system was reacted at 25° C. for 90 minutes. After the reaction, the multimode microplate reader was used to read the time-resolved fluorescence analysis signal.

Sequence of Programmed cell death 1 ligand/protein 1 (Q9NZQ7 whole entry): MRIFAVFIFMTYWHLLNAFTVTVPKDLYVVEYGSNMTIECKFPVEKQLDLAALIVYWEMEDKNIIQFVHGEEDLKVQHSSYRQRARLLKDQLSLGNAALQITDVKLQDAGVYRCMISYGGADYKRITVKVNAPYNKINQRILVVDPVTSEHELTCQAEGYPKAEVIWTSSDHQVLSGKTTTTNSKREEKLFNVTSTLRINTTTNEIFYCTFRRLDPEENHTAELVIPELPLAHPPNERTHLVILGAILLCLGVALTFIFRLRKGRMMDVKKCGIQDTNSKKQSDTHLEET
Sequence of Programmed cell death 1 ligand/protein 1 (Q15116 whole entry, further chain): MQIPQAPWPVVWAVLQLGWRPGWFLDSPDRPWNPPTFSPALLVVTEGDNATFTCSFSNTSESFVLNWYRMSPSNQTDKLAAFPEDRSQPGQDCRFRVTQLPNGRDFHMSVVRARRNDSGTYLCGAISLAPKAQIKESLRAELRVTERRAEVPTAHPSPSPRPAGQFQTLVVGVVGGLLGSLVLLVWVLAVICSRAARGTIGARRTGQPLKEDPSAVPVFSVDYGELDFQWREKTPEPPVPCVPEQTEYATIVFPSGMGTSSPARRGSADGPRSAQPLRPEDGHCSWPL

**Q.** Which IC50 does the source give for `COc1nc(-c2cccc(-c3cccc4c3CCN4c3nccc4cc(CN5CC[C@@H](O)C5)cnc34)c2Cl)ccc1CNC[C@@H]1CCC(=O)N1` [US20240132491, Example 1] here?
**A.** 1.95 nM

From BindingDB's records for patent US20240132491 (Medshine Discovery, 2024)
